pIC50: −log10 of the molar value.

Holding throughout (type): functional
One assay has as its system CCRF-CEM. The assay can be described thus: Antiproliferative activity against human CEM cells assessed as inhibition of cell proliferation incubated for 3 days by Coulter counter based assay. Particulars: 72 h.
The test system of a further assay is HeLa. The assay can be described thus: Antiproliferative activity against human HeLa cells assessed as inhibition of cell proliferation incubated for 4 days by Coulter counter based assay. Particulars: 96 h.
In a further assay the test system is L1210. The experiment in a line: Antiproliferative activity against mouse L1210 cells assessed as inhibition of cell proliferation incubated for 2 days by Coulter counter based assay. Particulars: L1210, 48 h.
Another assay relates to FM3A. The experiment in a line: Antiproliferative activity against mouse FM3A cells assessed as inhibition of cell proliferation incubated for 2 days by Coulter counter based assay. Particulars: 48 h.

On to `C=C(Br)C(=O)Nc1cccc(-c2cn3nc(Cc4ccc(Cl)cc4)sc3n2)c1`, for which the pIC50 in the assay with CCRF-CEM is 5.48; in the assay on HeLa, 5.57; with L1210, 5.64; in the assay with FM3A, 5.96.
As to `C=C(Br)C(=O)Nc1cccc(-c2cn3nc(Cc4cccc(OC)c4)sc3n2)c1`, the negative logarithm of the IC50 (pIC50) is 5.51 with CCRF-CEM, 5.60 with HeLa, 5.70 in the assay on L1210 and 5.96 in the assay on FM3A.
In the same order, the values of `COc1cccc(Cc2nn3cc(-c4cccc(N)c4)nc3s2)c1` are 4.40, 4.62, 4.68 and 5.00.
With `C=C(Br)C(=O)Nc1cccc(-c2cn3nc(-c4ccc(CC)cc4)sc3n2)c1`, the pIC50 with CCRF-CEM is 5.47; in the assay with HeLa, 5.49; in the assay with L1210, 5.66; in the assay on FM3A, 5.48.
On to `COc1ccc(Cc2nn3cc(-c4cccc(N)c4)nc3s2)cc1`, for which the pIC50 is at most 3.60 with CCRF-CEM, 3.72 with HeLa, 3.64 with L1210 and 4.00 with FM3A.
`Nc1cccc(-c2cn3nc(-c4cccs4)sc3n2)c1`: the pIC50 in the assay on CCRF-CEM, in the assay with HeLa, in the assay on L1210 and in the assay with FM3A was under 3.60 in each case.
In the case of `C=C(Br)C(=O)Nc1cccc(-c2cn3c(-c4ccc(Cl)cc4)csc3n2)c1`, the pIC50 in the assay with CCRF-CEM was 5.66; with HeLa, 5.52; in the assay on L1210 it was 5.72; in the assay with FM3A, 5.96.
On to `Cc1ccc(-c2nn3cc(-c4cccc(N)c4)nc3s2)cc1`, for which the pIC50 with CCRF-CEM is 5.23; in the assay with HeLa, 5.05; in the assay with L1210, 5.32; in the assay with FM3A, 5.24.
Consider `COc1ccc(-c2csc3nc(-c4cccc(N)c4)cn23)cc1`, for which the pIC50 with CCRF-CEM is 5.21; in the assay with HeLa, 4.72; with L1210, 4.72; in the assay with FM3A, 4.96.
In the case of `C=C(Br)C(=O)Nc1cccc(-c2cn3nc(-c4ccc(OCC)cc4)sc3n2)c1`, the pIC50 is 5.85 in the assay on CCRF-CEM, 5.96 in the assay with HeLa, 6.10 in the assay with L1210 and 5.96 in the assay on FM3A.
For `CCOc1ccc(-c2nn3cc(-c4cccc(N)c4)nc3s2)cc1`, the pIC50 with CCRF-CEM was under 3.60; with HeLa, 4.03; in the assay on L1210, 3.81; in the assay on FM3A, at most 3.60.
In the case of `Nc1cccc(-c2cn3nc(CCc4ccccc4)sc3n2)c1`, the pIC50 is 4.52 in the assay on CCRF-CEM, 3.62 in the assay on HeLa, 4.51 in the assay on L1210 and 4.54 in the assay on FM3A.
In the case of `COc1cccc(-c2nn3cc(-c4cccc(N)c4)nc3s2)c1`, the pIC50 was under 3.60 in the assay with CCRF-CEM, 3.64 in the assay with HeLa, under 3.60 with L1210 and 4.54 in the assay on FM3A.
For the compound `Nc1cccc(-c2cn3nc(Cc4ccc(Cl)cc4)sc3n2)c1`, the pIC50 with CCRF-CEM is 4.38; in the assay with HeLa, 4.60; in the assay on L1210 it was 4.80; with FM3A it was 5.22.
In the case of `COc1ccc(-c2nn3cc(-c4cccc(N)c4)nc3s2)cc1`, the pIC50 was at most 3.60 in the assay with CCRF-CEM, at most 3.60 in the assay with HeLa, at most 3.60 in the assay on L1210 and 4.13 in the assay with FM3A.
As for `C=C(Br)C(=O)Nc1cccc(-c2cn3nc(-c4cccc(OC)c4)sc3n2)c1`, the pIC50 with CCRF-CEM is 5.92; in the assay with HeLa, 5.96; in the assay with L1210, 6.24; in the assay with FM3A it was 6.30.
Turning to `C=C(Br)C(=O)Nc1cccc(-c2cn3nc(-c4ccc(OC)cc4)sc3n2)c1`, the pIC50 is 5.92 with CCRF-CEM, 5.64 with HeLa, 6.03 in the assay with L1210 and 6.05 with FM3A.
In the case of `C=C(Br)C(=O)Nc1cccc(-c2cn3nc(-c4ccccc4)sc3n2)c1`, the pIC50 is 6.02 in the assay on CCRF-CEM, 5.85 with HeLa, 6.22 with L1210 and 6.05 with FM3A.
For `C=C(Br)C(=O)Nc1cccc(-c2cn3nc(Cc4ccccc4)sc3n2)c1`, in that order: 5.38, 5.35, 5.52 and 5.52.
Turning to `C=C(Br)C(=O)Nc1cccc(-c2cn3c(-c4ccccc4)csc3n2)c1`, the pIC50 was 5.55 with CCRF-CEM, 5.47 with HeLa, 5.89 in the assay on L1210 and 5.89 with FM3A.
In the case of `CCc1ccc(-c2nn3cc(-c4cccc(N)c4)nc3s2)cc1`, the pIC50 in the assay on CCRF-CEM was 4.66; with HeLa, 5.09; in the assay with L1210, 5.22; in the assay with FM3A, 5.09.
As to `COc1ccc(-c2nn3cc(-c4cccc(N)c4)nc3s2)cc1OC`, the pIC50 in the assay with CCRF-CEM was 4.85; in the assay on HeLa, 4.59; with L1210, 4.80; in the assay on FM3A it was 4.89.
With `Nc1cccc(-c2cn3nc(-c4ccccc4)sc3n2)c1`, the pIC50 is 4.48 in the assay on CCRF-CEM, 4.59 with HeLa, 4.49 in the assay with L1210 and 4.85 in the assay with FM3A.
On to `C=C(Br)C(=O)Nc1cccc(-c2cn3nc(CCc4ccccc4)sc3n2)c1`, for which the pIC50 with CCRF-CEM is 5.38; in the assay with HeLa, 5.48; in the assay on L1210 it was 5.66; in the assay on FM3A, 5.59.
For the compound `C=C(Br)C(=O)Nc1cccc(-c2cn3nc(-c4ccc(C)cc4)sc3n2)c1`, the pIC50 was 5.77 in the assay on CCRF-CEM, 5.70 in the assay on HeLa, 6.04 in the assay with L1210 and 5.92 with FM3A.
Consider `Nc1cccc(-c2cn3c(-c4ccccc4)csc3n2)c1`, for which the pIC50 is 4.54 in the assay on CCRF-CEM, 4.22 with HeLa, 4.07 in the assay on L1210 and 4.47 in the assay with FM3A.
For `Nc1cccc(-c2cn3nc(Cc4ccccc4)sc3n2)c1`, in that order: 4.43, 4.62, 5.13 and 5.33.
Take `C=C(Br)C(=O)Nc1cccc(-c2cn3nc(-c4ccc(Cl)cc4)sc3n2)c1`: the pIC50 in the assay on CCRF-CEM was 5.49; with HeLa, 5.52; in the assay on L1210, 5.85; in the assay with FM3A, 5.70.
For `C=C(Br)C(=O)Nc1cccc(-c2cn3nc(Cc4ccc(OC)cc4)sc3n2)c1`, the pIC50 in the assay with CCRF-CEM is 5.64; with HeLa, 5.64; with L1210, 5.85; with FM3A it was 6.07.
As to `Nc1cccc(-c2cn3nc(-c4ccc(F)cc4)sc3n2)c1`, the pIC50 was at most 3.60 in the assay on CCRF-CEM, at most 3.60 with HeLa, at most 3.60 with L1210 and 4.48 with FM3A.
With `Nc1cccc(-c2cn3nc(-c4ccc(Cl)cc4)sc3n2)c1`, the pIC50 in the assay on CCRF-CEM is under 3.60; in the assay with HeLa, 3.80; in the assay with L1210 it was at most 3.60; in the assay on FM3A, 3.80.
As to `Nc1cccc(-c2cn3c(-c4ccc(Cl)cc4)csc3n2)c1`, the pIC50 in the assay on CCRF-CEM was 4.68; in the assay on HeLa, 4.77; in the assay on L1210, 4.66; in the assay on FM3A, 4.96.

The values are drawn from ChEMBL document CHEMBL3608308, “Design, synthesis and antiproliferative activity of novel heterobivalent hybrids based on imidazo[2,1-b][1,3,4]thiadiazole and imidazo[2,1-b][1,3]thiazole scaffolds” (Eur J Med Chem, 2015).
